Here are results for four compounds from US7579349B2, “4-(pyrazol-3-ylamino) pyrimidine derivatives for use in the treatment of cancer” (AstraZeneca AB, priority 2003, dated 2009).

As a reminder, the IC50 is the point on the concentration scale where inhibition reaches its midpoint. A high value points to a need for much substance.

This assay has as its system murine fibroblasts (NIH3T3) over-expressing human IGF-1 receptor. The experiment in a line: Inhibition of IGF-stimulated cell proliferation (BrdU incorporation), Test (c). The conditions noted are these: inhibition of IGF-stimulated proliferation in NIH3T3 over-expressing human IGF-1 receptor. Format: cell-based. The protocol:
c) Inhibition of IGF-stimulated Cell Proliferation
The construction of murine fibroblasts (NIH3T3) over-expressing human IGF-1 receptor has been described by Lammers et al (EMBO J, 8, 1369-1375, 1989). These cells show a proliferative response to IGF-I which can be measured by BrdU incorporation into newly synthesised DNA. Compound potency was determined as causing inhibition of the IGF-stimulated proliferation in the following assay:
Compounds are initially dissolved in DMSO to 10 mM, followed by dilutions in DMEM+1% FCS+glutamine to give a range from […] in 1-0.00045% DMSO final concentration in assay well.
Exponentially growing NIH3T3/IGFR cells were harvested and seeded in complete growth medium into a flat-bottomed 96 well tissue culture grade plate (Costar 3525) at 1.2×10^4 cells per well in a volume of 100 μl.
Growth medium was carefully removed from each well using a multi-channel pipette. Wells were carefully rinsed three times with 200 μl with HBSS. 100 μl of starvation medium was added to each well and the plate was re-incubated for 24 hours.
50 μl of a 4× concentrate of test compound was added to appropriate wells. Cells were incubated for 30 minutes with compound alone before the addition of IGF. For cells treated with IGF, an appropriate volume (i.e. 25 μl) of starvation medium was added to make a final volume per well up to 200 μl followed by 25 μl of IGF-1 at 160 ng/ml (to give a final concentration of 20 ng/ml). […] The plate was re-incubated for 20 hours.
The incorporation of BrdU in the cells (after a 4 h incorporation period) was assessed using the BrdU Cell Proliferation Elisa according to the manufacturer's protocol.

`Clc1cnc(N2CCCC2c2cc(C3CC3)no2)nc1Nc1cc(C2CC2)[nH]n1` (stereo not shown) [Example 5, 5-Chloro-2-[2-(3-cyclopropylisoxazol-5-yl]pyrrolidin-1-yl]-4-(5-cvlopropyl-1H-pyrazol-3-ylamino)phyrimidine] gave an IC50 of 0.13 µM.

Consider `Cc1cc(Nc2ccnc(N3CCCC3c3cc(-c4ccccn4)no3)n2)n[nH]1` (stereo not shown) [Example 23, 4-(5-Methyl-1H-pyrazol-3-ylamino)-2-{2-[3-(pyrid-2-yl)isoxazol-5-yl]pyrrolidin-1-yl}pyrimidine], for which the IC50 (Mus musculus) amounted to 0.11 µM.

In the case of `Cc1cc(Nc2cc(C(F)(F)F)nc(N3CCCC3c3cc(-c4ccccn4)no3)n2)n[nH]1` (stereo not shown) [Example 35, 4-(5-Methyl-1H-pyrazol-3-ylamino)-2-{2-[3-(pyrid-2-yl)isoxazol-5-yl]pyrrolidin-1-yl}-6-trifluoromethylpyrimidine], the IC50 (Mus musculus) came out at 0.56 µM.

`Cc1cc(Nc2nc(N3CCC[C@H]3c3cc(-c4nccs4)no3)ncc2Cl)n[nH]1` [Example 38, S-5-Chloro-2-{2-[3-(thiazol-2-yl)isoxazol-5-yl]pyrrolidin-1-yl}-4-(5-methyl-1H-pyrazol-3-ylamino)pyrimidine]: the IC50 is 0.054 µM.
